According to PubChem BioAssay AID328 (DTP/NCI, 2004):
Values joined by “and” are separate entries in the source; they are usually repeats but may differ in a detail not shown here. Equal entries are not always repeated. Inconclusive results and toxic doses are left out.

Tested on: BDF1 mice, P388 leukemia ip, median survival T/C
Experiment: NCI In Vivo Anticancer Drug Screen. Data for tumor model P388 Leukemia (intraperitoneal) in B6D2F1 (BDF1) mice
Conditions: endpoint: median survival time, higher = longer survival
In short: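 Steps: implant the tumour, treat one group with compound and another with vehicle, record survival, then divide treated by control.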

CC[C@]1(O)C[C@H]2CN(CCc3c([nH]c4ccccc34)[C@@](C(=O)OC)(c3cc4c(cc3OC)N(C=O)[C@H]3[C@@](O)(C(=O)OC)[C@H](OC(C)=O)[C@]5(CC)C=CCN6CC[C@]43[C@@H]65)C2)C1
T/C (dose: 0.03 mg/kg/injection, schedule: Q01DX009 (ip), vehicle: water): 86 % of control
T/C (dose: 0.03 mg/kg/injection, schedule: Q01DX010 (ip), vehicle: saline): 163 % of control and 172 % of control (2×)
T/C (dose: 0.06 mg/kg/injection, schedule: Q04DX003 (ip), vehicle: water): 90 % of control
T/C (dose: 0.08 mg/kg/injection, schedule: Q01DX009 (ip), vehicle: saline): 172 % of control
T/C (dose: 0.12 mg/kg/injection, schedule: Q01DX009 (ip), vehicle: saline): 300 % of control
T/C (dose: 0.13 mg/kg/injection, schedule: Q01DX010 (ip), vehicle: saline): 168 % of control
T/C (dose: 0.2 mg/kg/injection, schedule: Q01DX009 (ip), vehicle: saline): 231 % of control and 277 % of control
T/C (dose: 0.2 mg/kg/injection, schedule: Q04DX002 (ip), vehicle: saline): 163 % of control
T/C (dose: 0.22 mg/kg/injection, schedule: Q01DX009 (ip), vehicle: clinical formulation): 245 % of control
T/C (dose: 0.25 mg/kg/injection, schedule: Q01DX009 (ip), vehicle: saline): 275 % of control
T/C (dose: 0.25 mg/kg/injection, schedule: Q01DX010 (ip), vehicle: saline): 240 % of control and 254 % of control and 163 % of control
T/C (dose: 0.3 mg/kg/injection, schedule: Q01DX009 (ip), vehicle: saline): 289 % of control and 500 % of control
T/C (dose: 0.3 mg/kg/injection, schedule: Q04DX003 (ip), vehicle: saline): 186 % of control
T/C (dose: 0.45 mg/kg/injection, schedule: Q01DX009 (ip), vehicle: saline): 278 % of control and 336 % of control
T/C (dose: 0.48 mg/kg/injection, schedule: Q04DX003 (ip), vehicle: saline): 232 % of control and 150 % of control
T/C (dose: 0.5 mg/kg/injection, schedule: Q01DX009 (ip), vehicle: saline): 90 % of control
T/C (dose: 0.5 mg/kg/injection, schedule: Q01DX010 (ip), vehicle: saline): 86 % of control and 90 % of control
T/C (dose: 0.5 mg/kg/injection, schedule: Q04DX003 (ip), vehicle: water): 177 % of control
T/C (dose: 0.53 mg/kg/injection, schedule: Q04DX003 (ip), vehicle: saline): 183 % of control
T/C (dose: 0.8 mg/kg/injection, schedule: Q04DX003 (ip), vehicle: clinical formulation): 236 % of control
T/C (dose: 1.0 mg/kg/injection, schedule: Q01DX001 (ip), vehicle: water): 153 % of control
T/C (dose: 1.0 mg/kg/injection, schedule: Q04DX003 (ip), vehicle: water): 227 % of control
T/C (dose: 1.0 mg/kg/injection, schedule: Q04DX004 (ip), vehicle: saline): 233 % of control
T/C (dose: 1.1 mg/kg/injection, schedule: Q04DX003 (ip), vehicle: saline): 532 % of control and 180 % of control
T/C (dose: 1.2 mg/kg/injection, schedule: Q04DX003 (ip), vehicle: clinical formulation): 240 % of control
T/C (dose: 1.3 mg/kg/injection, schedule: Q04DX003 (ip), vehicle: saline): 250 % of control
T/C (dose: 1.5 mg/kg/injection, schedule: Q04DX004 (ip), vehicle: saline): 252 % of control
T/C (dose: 1.56 mg/kg/injection, schedule: Q04DX002 (ip), vehicle: saline): 90 % of control
T/C (dose: 1.65 mg/kg/injection, schedule: Q04DX003 (ip), vehicle: saline): 532 % of control
T/C (dose: 1.8 mg/kg/injection, schedule: Q04DX003 (ip), vehicle: clinical formulation): 113 % of control
T/C (dose: 2.0 mg/kg/injection, schedule: Q01DX001 (ip), vehicle: water): 168 % of control
T/C (dose: 2.0 mg/kg/injection, schedule: Q04DX003 (ip), vehicle: saline): 116 % of control
T/C (dose: 2.47 mg/kg/injection, schedule: Q04DX003 (ip), vehicle: saline): 166 % of control
T/C (dose: 4.0 mg/kg/injection, schedule: Q01DX001 (ip), vehicle: saline): 235 % of control and 163 % of control
T/C (dose: 4.0 mg/kg/injection, schedule: Q04DX003 (ip), vehicle: water): 111 % of control
T/C (dose: 15.6 micrograms/kg/injection, schedule: Q03HX008 (ip), vehicle: clinical formulation): 157 % of control
T/C (dose: 15.6 micrograms/kg/injection, schedule: Q03HX016 (ip), vehicle: clinical formulation): 185 % of control
T/C (dose: 31.2 micrograms/kg/injection, schedule: Q03HX008 (ip), vehicle: clinical formulation): 185 % of control
T/C (dose: 31.2 micrograms/kg/injection, schedule: Q03HX024 (ip), vehicle: clinical formulation): 233 % of control
T/C (dose: 62.0 micrograms/kg/injection, schedule: Q03HX024 (ip), vehicle: saline): 255 % of control
T/C (dose: 62.5 micrograms/kg/injection, schedule: Q03HX016 (ip), vehicle: clinical formulation): 257 % of control
T/C (dose: 62.5 micrograms/kg/injection, schedule: Q04DX003 (ip), vehicle: clinical formulation): 166 % of control
T/C (dose: 125.0 micrograms/kg/injection, schedule: Q03HX016 (ip), vehicle: clinical formulation): 314 % of control
T/C (dose: 125.0 micrograms/kg/injection, schedule: Q03HX024 (ip), vehicle: saline): 370 % of control
T/C (dose: 125.0 micrograms/kg/injection, schedule: Q04DX003 (ip), vehicle: clinical formulation): 180 % of control
T/C (dose: 125.0 micrograms/kg/injection, schedule: Q08DX002 (ip), vehicle: clinical formulation): 171 % of control
T/C (dose: 250.0 micrograms/kg/injection, schedule: Q01DX001 (ip), vehicle: clinical formulation): 161 % of control
T/C (dose: 250.0 micrograms/kg/injection, schedule: Q01DX009 (ip), vehicle: clinical formulation): 242 % of control
T/C (dose: 250.0 micrograms/kg/injection, schedule: Q03HX008 (ip), vehicle: clinical formulation): 247 % of control
T/C (dose: 250.0 micrograms/kg/injection, schedule: Q03HX024 (ip), vehicle: saline): 90 % of control
T/C (dose: 250.0 micrograms/kg/injection, schedule: Q08DX002 (ip), vehicle: clinical formulation): 176 % of control
T/C (dose: 360.0 micrograms/kg/injection, schedule: Q04DX003 (ip), vehicle: saline): 182 % of control
T/C (dose: 432.0 micrograms/kg/injection, schedule: Q04DX003 (ip), vehicle: saline): 249 % of control
T/C (dose: 500.0 micrograms/kg/injection, schedule: Q01DX001 (ip), vehicle: clinical formulation): 152 % of control
T/C (dose: 500.0 micrograms/kg/injection, schedule: Q03HX016 (ip), vehicle: clinical formulation): 123 % of control
T/C (dose: 500.0 micrograms/kg/injection, schedule: Q04DX003 (ip), vehicle: clinical formulation): 228 % of control
T/C (dose: 500.0 micrograms/kg/injection, schedule: Q04DX003 (ip), vehicle: saline): 248 % of control
T/C (dose: 500.0 micrograms/kg/injection, schedule: Q08DX002 (ip), vehicle: clinical formulation): 180 % of control
T/C (dose: 540.0 micrograms/kg/injection, schedule: Q04DX003 (ip), vehicle: saline): 240 % of control and 272 % of control
T/C (dose: 600.0 micrograms/kg/injection, schedule: Q01DX009 (ip), vehicle: saline): 120 % of control
T/C (dose: 600.0 micrograms/kg/injection, schedule: Q04DX003 (ip), vehicle: saline): 250 % of control and 182 % of control
T/C (dose: 648.0 micrograms/kg/injection, schedule: Q04DX003 (ip), vehicle: saline): 254 % of control
T/C (dose: 720.0 micrograms/kg/injection, schedule: Q04DX003 (ip), vehicle: saline): 225 % of control and 291 % of control
T/C (dose: 900.0 micrograms/kg/injection, schedule: Q04DX003 (ip), vehicle: saline): 280 % of control and 322 % of control
T/C (dose: 1000.0 micrograms/kg/injection, schedule: Q04DX003 (ip), vehicle: clinical formulation): 571 % of control
T/C (dose: 1000.0 micrograms/kg/injection, schedule: Q08DX002 (ip), vehicle: clinical formulation): 228 % of control
T/C (dose: 1080.0 micrograms/kg/injection, schedule: Q04DX003 (ip), vehicle: saline): 292 % of control
T/C (dose: 1200.0 micrograms/kg/injection, schedule: Q04DX003 (ip), vehicle: saline): 225 % of control and 116 % of control
T/C (dose: 1500.0 micrograms/kg/injection, schedule: Q04DX003 (ip), vehicle: saline): 278 % of control and 320 % of control
T/C (dose: 1800.0 micrograms/kg/injection, schedule: Q04DX003 (ip), vehicle: saline): 294 % of control
T/C (dose: 2000.0 micrograms/kg/injection, schedule: Q04DX003 (ip), vehicle: clinical formulation): 95 % of control
T/C (dose: 2000.0 micrograms/kg/injection, schedule: Q08DX002 (ip), vehicle: clinical formulation): 300 % of control
T/C (dose: 4000.0 micrograms/kg/injection, schedule: Q01DX001 (ip), vehicle: clinical formulation): 233 % of control
T/C (dose: 4000.0 micrograms/kg/injection, schedule: Q08DX002 (ip), vehicle: clinical formulation): 238 % of control
